# Like-named read-outs stand apart in the source and are kept apart here.
# Columns and labels:
# A2780 MCTSs = experiment: (Photo-)cytotoxicity on 3D multicellular tumour spheroids, resazurin assay; type: cell-based, human; conditions: for IC50: normoxic, one week of incubation
# Experimental: A2780 spheroids (ca. 500 µm in diameter) were treated with increasing concentrations of the compounds and after 24 h of incubation, the medium was replaced with fresh medium, and the cells were either kept in the dark or irradiated for 1 h at 740 nm. Images of the spheroids were taken every 24 h for 3 days.
# Additionally, the phototoxicity was tested via a fluorometric resazurin assay in A2780 MCTSs (Table 3). […] (Figure S29). […] This can be attributed to the different biological endpoints and time frames of the assays: spheroid diameter was monitored over 72 h, whereas resazurin measurements were performed after 7 days, potentially capturing delayed cytotoxic effects due to differences in drug cellular uptake.
# 4 h of incubation, the conversion of resazurin into resorufin was determined upon excitation at 540 nm and measurement of its emission at 590 nm using a Cytation 5 Imaging Reader from BioTek. The obtained data was analysed with the GraphPad Prism software
# MCTS were cultured using ultra-low attachment 96 wells plates from Corning (Fisher Scientific 15329740). A2780 cells were seeded at a density of 1,500 cells per well in 100 μL of RPMI. Within 2-3 days, MCTSs have approximately 500 μm of diameter. The formation as well as integrity and diameter of the MCTSs were monitored by microscopy.
# (Photo-)cytotoxicity on 3D multicellular tumor spheroids (MCTS)
# After 2 days of growing at 37 °C in 5% CO2, the medium was removed, and MCTSs were treated by adding 100 μL of the medium in the well with increasing concentrations of compounds (Os-Pt-Cer, Os, Ceritinib, Oxaliplatin, cisplatin, and Ce6 as additional control). For untreated reference MCTSs, only half of the medium was added with fresh medium. After 24 hours, the MCTSs were divided into two identical groups. The first group was strictly kept in the dark. The second group was irradiated at 740 nm for 1 h (12.60 J·cm-2) using a LUMOS-BIO photoreactor (Atlas Photonics). After the irradiation, all groups were incubated additional 7 days. Thereafter, medium was replaced with 100 μL of fresh medium containing resazurin (0.2 mg/mL). After 24 h of incubation at 37 °C, 5% CO 2, plates were read using a SpectraMaxM2 Microplate Reader ( λexc = 540 nm; λread = 590 nm). Fluorescence data were normalised, and data were fitted using GraphPad Prism Software, and IC 50 was calculated by non - linear regression. Changes in the size and shape of MCTS were monitored every 24 h using Cytation 5 Imaging Reader from BioTek, objective x4. […]
# Figure S29. Cell viability graphs after one week of incubation. Studied compounds were incubated for 24 h, thereafter the medium was renovated. For PDT, plates were irradiated at 740 nm for 1h using a LUMOS-BIO photoreactor (Atlas Photonics). For both PDT and regular cytotoxicity, cells were incubated for one week at 37 °C, 5 % CO2. The medium was renovated each two days. Then, the medium was replaced with 100 µL of fresh medium containing 0.2 mg/mL resazurin (Acros Organics). After 24 h of incubation, the fluorescence signal of the resazurin product was recorded (λexc = 540 nm; λem = 590 nm) using a Cytation 5 Cell Imaging Multi-Mode Reader (Biotek - Agilent).
# (1 picture or pasted object on this page, not shown here)
# A549 cells = experiment: (Photo-)cytotoxicity on 2D cell monolayers, resazurin assay; type: cell-based; conditions: for IC50: A549, normoxic, 4 h exposure
# Experimental: The 2D cytotoxicity and phototoxicity profiles of Os‐Pt‐Cer and controls, were evaluated in a panel of cancerous cell lines, including A2780 (ovarian carcinoma), A549 (non‐small cell lung carcinoma), and MCA205 (murine fibrosarcoma), as well as a non‐cancerous retinal pigment epithelial cell line (RPE‐1). Cells were treated with the compounds (0.003–100 µM) for 4 h, either kept in the dark or irradiated at 670 nm (13.5 J cm^− ^2) (Table S4 and Figure S22) or 740 nm (12.6 J cm^− ^2) and viability was assessed 44 h post‐treatment. To verify robustness, the incubation was extended to 72 h. […]
# Human ovarian cancer (A2780) cells and mouse fibrosarcoma cells (MCA205) were cultured in RPMI media. Retinal pigment epithelium (RPE -1) cells were cultured in DMEM/F -12 medium. Lung cancer cells (A549) were cultured in F -12K medium. These cell lines were complemented with 10% of fetal bovine serum, 100 U/mL penicillin -streptomycin mixture, and maintained in a humidified atmosphere […]
# (Photo-)cytotoxicity on 2D cell monolayers
# The cytotoxicity of the compounds was assessed by measuring cell viability using a resazurin assay.
# The cells were seeded in triplicates in 96 well plates with a density of 10 4 cells per well in 100 μL of media. After 24 h, the medium was removed, and the cells were treated with increasing concentrations (0.003 → 100 µM) of the compounds diluted in cell media , achieving a total volume of 100 μL/well.
# The cells were incubated with the compound for 4 h (final incubation time 48 h) or 24 h (final incubation time 72 h). After this time, the media was removed and replaced with 100 μL of fresh medium. For the phototoxicity studies, the cells were exposed to light with an Atlas Photonics LUMOS BIO irradiation system. Each well was constantly irradiated at 670 nm (60 min, 13.50 J·cm-2) or 740 nm (60 min, 12.60 J·cm-2). During the irradiation, the temperature of the plate was maintained at 37 °C. The cells were grown in the incubator for an additional 44 or 48 h, respectively. For the determination of the dark cytotoxicity, the cells were not irradiated and after the medium exchange directly incubated for 44 h.
# After this time, the medium was replaced with fresh medium containing resazurin (0.2 mg/mL). After […]
# 4 h of incubation, the conversion of resazurin into resorufin was determined upon excitation at 540 nm and measurement of its emission at 590 nm using a Cytation 5 Imaging Reader from BioTek. The obtained data was analysed with the GraphPad Prism software […]
# After 24 h of incubation at 37 °C, 5% CO 2, plates were read using a SpectraMaxM2 Microplate Reader ( λexc = 540 nm; λread = 590 nm). Fluorescence data were normalised, and data were fitted using GraphPad Prism Software, and IC 50 was calculated by non - linear regression. Changes in the size and shape of MCTS were monitored every 24 h using Cytation 5 Imaging Reader from BioTek, objective x4.
# Intracellular distribution by confocal fluorescence microscopy
# 10^4 cells/well (A2780 cells) were seeded in complete medium (RPMI) in µ -slide 8 well (Ibidi) (100 µl/well) and left for 24 h to attach to the bottom. Then, the culture medium was removed , and 100 µl of solution of the corresponding complexes (5 µM) was added. The complexes were incubated with the cells for 4 hours. Thereafter, the medium was removed and replaced by RPMI without phenol red , and Hoechst and MitoTracker Green were added at a final concentration of 1 µg/mL. They were incubated with the cells for 30 min in the dark at 37 °C. Images were collected in a sequential mode in a Leica TCS SP8 confocal microscope with a 60x oil immers ion objective, a line average of 4, and a format of […]
# (MTG)→ 500 -550nm, and 488 nm (complexes)→ 680 -730 nm. The confocal pinhole was 1 Airy unit.
# Images were analysed with LAS X Flim FCS software.
# Intracellular distribution by ICP -MS
# [1] = Homo sapiens, 168 h, dark, read-out: IC50 Dark
# [2] = Homo sapiens, dark, total 48 h incubation, read-out: IC50 Dark
Compound,PI (A2780 MCTSs),IC50 (A2780 MCTSs; [1]),"IC50 (A2780 MCTSs; Homo sapiens, 740 nm (60 min, 12.60 J·cm^−2), read-out: IC50 Irrad. 740 nm)",PI (IC50 dark/IC50 irradiation 740 nm) (A549 cells; A549),"IC50 (A549 cells; Homo sapiens, 740 nm (60 min, 12.60 J·cm^−2), total 48 h, read-out: IC50 Irrad. 740 nm)",IC50 (A549 cells; [2]),"IC50 (A2780 MCTSs; dark, read-out: IC50 Dark)","IC50 (A549 cells; dark, total 48 h incubation, read-out: IC50 Dark)"
"C=Cc1c(C)c2cc3nc(c(CC(=O)O)c4[nH]c(cc5nc(cc1[nH]2)C(C)=C5CC)c(C)c4C(=O)O)[C@@H](CCC(=O)O)[C@@H]3C [Ce6, Chlorin e6]",≥7,> 5 µM,0.7 ± 0.4 µM,≥17,5.86 ± 0.82 µM,> 100 µM,,
Cc1cc(Nc2ncc(Cl)c(Nc3ccccc3S(=O)(=O)C(C)C)n2)c(OC(C)C)cc1C1CCNCC1 [Ceritinib],,> 5 µM,,,,3.8 ± 0.09 µM,,
O=C1[O][Pt]2([NH][C@@H]3CCCC[C@H]3[NH]2)[O]C1=O [Oxaliplatin],,,,,,,0.5 ± 0.7 µM,2.8 ± 0.13 µM

# From paper PMC12668304, “A Triple Threat Against Ovarian Cancer: Os(II)‐Pt(IV)‐Ceritinib Conjugates for Photodynamic Therapy, Chemotherapy, and Immunogenic Cell Death Induction” (Angewandte Chemie (International Ed. in English), 2025)
